From patent US11407741B2, “Compounds and their use as selective inhibitors of caspase-2” (priority 2017, dated 2022)
Where a SMILES comes first, the peptide text is derived from it. [ ]: non-standard residue; d: D form. The star is where a group is joined. Pro(3S-CH2tBu) = CC(C)(C)C[C@H]1CCN[C@@H]1C(=O)O; Quinaldoyl = O=C(c1ccc2ccccc2n1)*; X1 = c1ncc(CO*)s1

Columns and labels:
[1] = target: T1, Casp-2 (Homo sapiens, UniProt P42575); assay: Caspase-2 inhibition assay for reversible inhibitors (IC50, Ki, dilution method); format: biochemical
T1 construct: the Caspase-2 and Caspase-3 are human recombinant active enzymes; purchased Enzo Life ALX-201-057-U100
T1 sequence (P42575 170-325 limits assumed): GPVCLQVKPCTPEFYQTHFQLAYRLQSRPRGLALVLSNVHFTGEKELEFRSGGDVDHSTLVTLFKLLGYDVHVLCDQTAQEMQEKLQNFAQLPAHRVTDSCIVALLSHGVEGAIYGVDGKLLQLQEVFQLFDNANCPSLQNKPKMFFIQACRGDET
T1 sequence (P42575 348-452 limits assumed): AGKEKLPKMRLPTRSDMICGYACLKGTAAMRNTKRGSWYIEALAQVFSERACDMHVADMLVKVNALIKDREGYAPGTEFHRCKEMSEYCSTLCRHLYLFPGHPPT
Procedure: (§1) A preliminary step in the characterization of an inhibitor is the determination of its IC50. The IC50 is the necessary concentration of an inhibitor to decrease the enzyme activity by 50% of its maximum and uninhibited value.
(§2) The compound, at different concentrations, is incubated with the enzyme and buffer for 30 minutes at 37° C. to allow formation of the Enzyme-Inhibitor complex. The reaction is initiated by addition of buffer and substrate, and then activity is measured over 15 minutes for the determination of initial velocities.
(§3) The enzyme and the inhibitor (or DMSO as control) are incubated for 30 minutes at 37° C. The complex thus formed is diluted to 100th in the buffer/substrate mixture and then the activity measurement is started over 20 minutes. The initial rate obtained for the DMSO represents the 100% activity and will serve as a reference for the quantification of the residual activity of the enzyme in the presence of the inhibitor.
(§4) The reaction is started over 20 minutes upon addition of the buffer-substrate mixture.
(§5) Initial velocity values in RFU·min^−1 are reduced to Specific Activity (SA)values (pmol/min/μg enzyme) from an AMC standard range (1 RFU→0.02 pmol).
(§6) The evolution of the ratio 1/SA as a function of 1/[S] makes it possible to obtain the so-called double-inverse graph of Lineweaver-Burk from equation 4 (eq.4) where Vmaxapp and KMapp are the parameters which vary according to the type inhibition and as a function of inhibitor concentration. The intersection of the lines obtained for increasing inhibitor concentrations makes it possible to distinguish different types of inhibitors.
A secondary graph, obtained from the values of the slopes of the Lineweaver-Burk plot as a function of the concentration of inhibitor, makes it possible to obtain the value of the Ki. Its value is given by the abscissa point at the origin.
The initial velocity V0 is expressed from equation 8 (eq.8), where Vmax is the maximum reaction rate (reached when the enzyme is saturated with substrate), [S] the substrate concentration, KM is the Michaelis-Menten constant (substrate concentration corresponding to Vmax/2), Ki is the dissociation constant which accounts for the affinity of the inhibitor for the enzyme.

[2] = target: T2, Caspase-3 (Homo sapiens, UniProt P42574); assay: Caspase-3 inhibition assay for reversible inhibitors (IC50, Ki); format: biochemical; details: compared with Ac-VDVAD-CHO
T2 construct: the Caspase-2 and Caspase-3 are human recombinant active enzymes; purchased R&D Systems 707-C3-010/CF
T2 sequence (P42574 29-175 limits assumed): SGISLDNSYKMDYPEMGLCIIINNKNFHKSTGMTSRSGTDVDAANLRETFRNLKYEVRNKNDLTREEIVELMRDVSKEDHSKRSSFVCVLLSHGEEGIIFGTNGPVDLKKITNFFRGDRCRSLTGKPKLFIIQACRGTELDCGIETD
T2 sequence (P42574 176-277 limits assumed): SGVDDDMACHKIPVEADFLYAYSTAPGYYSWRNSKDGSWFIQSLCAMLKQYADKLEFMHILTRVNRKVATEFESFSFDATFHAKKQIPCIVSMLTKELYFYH
Procedure: as §1, §2, §3, §4, §5, §6
A secondary graph, obtained from the values of the slopes of the Lineweaver-Burk plot as a function of the concentration of inhibitor, makes it possible to obtain the value of the Ki. Its value is given by the abscissa point at the origin. […]

## CC(C)[C@H](NC(=O)c1ccc2ccccc2n1)C(=O)N[C@@H](CC(=O)O)C(=O)N[C@H](C(=O)N1CC[C@H](CC(C)(C)C)[C@H]1C(=O)N[C@@H](CC(=O)O)C(=O)OCc1cncs1)C(C)C [Compound 3, (S)-4-(((S)-1-((2S,3S)-2-(((S)-3-carboxy-1-oxo-1-(thiazol-5 - ylmethoxy)propan-2-yl)carbamoyl)-3-neopenthylpyrrolidin-1-yl)-3-methyl-1-oxobutan-2-yl)amino)-3-((S)-3-methyl-2-(quinoline-2-carboxamido)butanamido)-4-oxobutanoic acid] (Quinaldoyl-VDV[Pro(3S-CH2tBu)]D-X1)
[1]
  Selectivity Indexes (KiCasp3/KiCasp2): >>1000
  potency on Casp-2: still powerful on Casp-2
  type of inhibition (reversible), dilution method: reversible inhibitor
[1]; from IC50 on Casp-2 and Caspase-3
  Casp-2 selectivity: Casp2-selective
[2]
  potency on Caspase-3: considerably less potent on Caspase-3 than Ac-VDVAD-CHO
